These results are taken from EPA's ToxValDB 9.5 (doi:10.2903/j.efsa.2011.2091).

For series [1], the system named is Colinus virginianus. The note with it: acute, oral, mortality; for LC50: diet.
For series [2], the system named is Rattus norvegicus.
The test system of series [3] is Bibionidae. The note with it: chronic/long-term; duration: 28 days; development.
In series [4] the test system is Anas platyrhynchos. The settings on record: reproductive; mortality.
In series [5] the test system is Landoltia sp. The settings on record: acute; duration: 14 days; frond number.
The test system of series [6] is Daphnia magna. The note with it: chronic/long-term; duration: 21 days; reproduction.
Series [7] concerns Oryctolagus sp. The settings on record: chronic; mortality.
In series [8] the test system is Oncorhynchus mykiss. The note with it: chronic/long-term; duration: 21 days; mortality.
For series [9], the system named is Apis mellifera. The settings on record: acute, mortality.
Series [10] has as its system Tagia sp.
Series [11] has as its system Lepomis macrochirus. The note with it: acute; duration: 96 hours; mortality.

Structures are written as SMILES. Values after ≈ are worked out from the molar mass of the structure shown. Some results are limits rather than exact numbers.

Compound `CCCCCCC(C)OC(=O)COc1nc(F)c(Cl)c(N)c1Cl` (centres undefined) [Fluroxypyr-meptyl] yielded an LC50 in series [1] of more than 1040 mg/kg-day. Further, the LD50 was more than 2000 mg/kg-day in series [1] and more than 2000 mg/kg-day in series [2] (acute, oral, mortality). For the same compound, the NOEC in series [3] was 0.13 mg/L; in series [4] it was 57.8 mg/kg-day.

Turning to `Nc1c(Cl)c(F)nc(OCC(=O)O)c1Cl` [Fluroxypyr], the LC50 in [5] is 12.3 µg/mL (≈ 48.2 µM); in [1], more than 757 mg/kg-day; in [10] (acute, duration: 14 days, mortality), 64.8 mg/kg; in series [11], 14.3 µg/mL (≈ 56.1 µM). Further, the LD50 is more than 2000 mg/kg-day in series [1]; more than 180 µg/piece in series [9] (dermal); 37.1 µg/piece in [9] (oral, unspecified). For the same compound, the NOEC was 56 mg/L in series [6]; 100 mg/L in [8]; 40.1 mg/kg-day in series [4]; 3.05 mg/kg in series [10] (chronic/long-term, duration: 56 days). For the same compound, the NOEL in series [7] came out at 100 mg/kg-day. Moreover, the NOAEL in series [2] (chronic, duration: 2 years) turned out to be 80 mg/kg-day; in series [2] (subchronic, oral), 80 mg/kg-day.
